In the CheMixHub viscosity set:
Several values for one entry are separate records, joined by “and”; a condition that tells them apart may be missing. Identical values can stand only once. ± gives the uncertainty stated by the source.

Assay: xn = mol fraction of the nth substance listed

CCC(C)O (centres undefined) + CCCCO
Details | viscosity [mPa·s]
303.15 K, 101 kPa, x2 = 0.8988 | 2.875 ± 0.048

Cc1cccc(C)c1 + CCCCO
308.15 K, 101 kPa
Details | viscosity [mPa·s]
x2 = 0.0525 | 0.471 ± 0.01
x2 = 0.1036 | 0.54 ± 0.011
x2 = 0.19 | 0.553 ± 0.012
x2 = 0.307 | 0.583 ± 0.012
x2 = 0.4171 | 0.631 ± 0.013
x2 = 0.5209 | 0.733 ± 0.015
x2 = 0.619 | 0.815 ± 0.017
x2 = 0.7117 | 0.947 ± 0.02
x2 = 0.7995 | 1.131 ± 0.024
x2 = 0.8828 | 1.323 ± 0.028
x2 = 0.9619 | 1.556 ± 0.032

Nc1ccccc1Cl + CCCCO
viscosity [mPa·s], 101 kPa
Details | x1 = 0.0883 | x1 = 0.1789 | x1 = 0.2719 | x1 = 0.3675 | x1 = 0.4656 | x1 = 0.5666 | x1 = 0.6703 | x1 = 0.7771 | x1 = 0.8869
303.15 K | 2.47 ± 0.54 | 2.66 ± 0.58 | 2.83 ± 0.62 | 3 ± 0.65 | 3.16 ± 0.69 | 3.31 ± 0.72 | 3.44 ± 0.75 | 3.57 ± 0.78 | 3.69 ± 0.8
308.15 K | 2.21 ± 0.48 | 2.39 ± 0.52 | 2.55 ± 0.55 | 2.71 ± 0.59 | 2.85 ± 0.62 | 2.98 ± 0.65 | 3.1 ± 0.67 | 3.22 ± 0.7 | 3.32 ± 0.72
313.15 K | 1.98 ± 0.43 | 2.16 ± 0.47 | 2.31 ± 0.5 | 2.45 ± 0.53 | 2.58 ± 0.56 | 2.7 ± 0.59 | 2.82 ± 0.61 | 2.92 ± 0.63 | 3 ± 0.65
318.15 K | 1.79 ± 0.39 | 1.96 ± 0.43 | 2.1 ± 0.46 | 2.23 ± 0.48 | 2.35 ± 0.51 | 2.46 ± 0.53 | 2.57 ± 0.56 | 2.67 ± 0.58 | 2.74 ± 0.6

O=S1(=O)CCCC1 + CCCCO
viscosity [mPa·s], 101 kPa
Details | x1 = 0.1066 | x1 = 0.191 | x1 = 0.2871 | x1 = 0.3889 | x1 = 0.4851 | x1 = 0.5891 | x1 = 0.6937 | x1 = 0.7935 | x1 = 0.9023
303.15 K | 2.084 ± 0.023 | 2.148 ± 0.023 | 2.32 ± 0.025 | 2.582 ± 0.029 | 2.914 ± 0.034 | 3.395 ± 0.041 | 4.117 ± 0.051 | 5.218 ± 0.068 | 7.192 ± 0.097
308.15 K | 1.855 ± 0.019 | 1.912 ± 0.02 | 2.06 ± 0.022 | 2.291 ± 0.026 | 2.59 ± 0.03 | 3.028 ± 0.035 | 3.676 ± 0.044 | 4.65 ± 0.057 | 6.369 ± 0.08
313.15 K | 1.659 ± 0.016 | 1.711 ± 0.018 | 1.842 ± 0.02 | 2.048 ± 0.023 | 2.316 ± 0.026 | 2.715 ± 0.031 | 3.3 ± 0.038 | 4.167 ± 0.049 | 5.669 ± 0.068

O=S1(=O)CCCC1 + CCCCOC(C)=O
viscosity [mPa·s], 101 kPa
Details | x1 = 0.3402 | x1 = 0.7887 | x2 = 0.0164
303.15 K | – | 4.275 ± 0.037 | –
308.15 K | 1.145 ± 0.011 | – | 7.925 ± 0.064

Nc1ccccc1Cl + CCCCOCCO
303.15 K, 101 kPa
Details | viscosity [mPa·s]
x1 = 0.1461 | 3.066 ± 0.78
x1 = 0.2298 | 3.194 ± 0.81
x1 = 0.3377 | 3.344 ± 0.85
x1 = 0.4573 | 3.496 ± 0.89
x1 = 0.563 | 3.619 ± 0.92
x1 = 0.6667 | 3.722 ± 0.95
x1 = 0.7494 | 3.786 ± 0.96
x1 = 0.8351 | 3.833 ± 0.98
x1 = 0.9459 | 3.859 ± 0.98

O=S1(=O)CCCC1 + CCCCOCCO
303.15 K, 101 kPa
Details | viscosity [mPa·s]
x1 = 0.0491 | 1.94 ± 0.022
x1 = 0.0999 | 1.87 ± 0.022
x1 = 0.2 | 2.002 ± 0.023
x1 = 0.2998 | 2.501 ± 0.029
x1 = 0.3503 | 2.882 ± 0.033
x1 = 0.3999 | 3.311 ± 0.038
x1 = 0.4495 | 3.777 ± 0.043
x1 = 0.4999 | 4.28 ± 0.049
x1 = 0.5997 | 5.339 ± 0.061
x1 = 0.7015 | 6.489 ± 0.073
x1 = 0.7991 | 7.639 ± 0.085
x1 = 0.8987 | 8.898 ± 0.099
x1 = 0.9504 | 9.535 ± 0.11

NCCCO + CCCC[N+](CCCC)(CCCC)CCCC.[Br-]
viscosity, 101.33 kPa
Details | 293.15 K | 298.15 K | 303.15 K | 308.15 K | 313.15 K | 318.15 K | 323.15 K
x1 = 0.8 | 113.9 ± 7.5 mPa·s | 84.69 ± 5.9 mPa·s | 63.71 ± 4.5 mPa·s | 49.65 ± 3.6 mPa·s | 38.79 ± 3.1 mPa·s | 30.76 ± 2.7 mPa·s | 24.94 ± 2.4 mPa·s
x1 = 0.9 | 79.29 ± 7.6 mPa·s and 65.55 ± 5.9 mPa·s | 60.03 ± 5.6 mPa·s and 50.16 ± 4 mPa·s | 46.01 ± 4.3 mPa·s and 38.6 ± 3.3 mPa·s | 35.84 ± 3.6 mPa·s and 29.98 ± 2.8 mPa·s | 28.31 ± 3 mPa·s and 23.97 ± 2.5 mPa·s | 22.73 ± 2.6 mPa·s and 19.27 ± 2.4 mPa·s | 18.62 ± 2.4 mPa·s and 15.76 ± 2.3 mPa·s
